Biological target: Botulinum neurotoxin type A (Clostridium botulinum, UniProt P0DPI0)
Assay type: cell-based

Botulinum neurotoxin type A, sequence (P0DPI0 whole entry, looked up): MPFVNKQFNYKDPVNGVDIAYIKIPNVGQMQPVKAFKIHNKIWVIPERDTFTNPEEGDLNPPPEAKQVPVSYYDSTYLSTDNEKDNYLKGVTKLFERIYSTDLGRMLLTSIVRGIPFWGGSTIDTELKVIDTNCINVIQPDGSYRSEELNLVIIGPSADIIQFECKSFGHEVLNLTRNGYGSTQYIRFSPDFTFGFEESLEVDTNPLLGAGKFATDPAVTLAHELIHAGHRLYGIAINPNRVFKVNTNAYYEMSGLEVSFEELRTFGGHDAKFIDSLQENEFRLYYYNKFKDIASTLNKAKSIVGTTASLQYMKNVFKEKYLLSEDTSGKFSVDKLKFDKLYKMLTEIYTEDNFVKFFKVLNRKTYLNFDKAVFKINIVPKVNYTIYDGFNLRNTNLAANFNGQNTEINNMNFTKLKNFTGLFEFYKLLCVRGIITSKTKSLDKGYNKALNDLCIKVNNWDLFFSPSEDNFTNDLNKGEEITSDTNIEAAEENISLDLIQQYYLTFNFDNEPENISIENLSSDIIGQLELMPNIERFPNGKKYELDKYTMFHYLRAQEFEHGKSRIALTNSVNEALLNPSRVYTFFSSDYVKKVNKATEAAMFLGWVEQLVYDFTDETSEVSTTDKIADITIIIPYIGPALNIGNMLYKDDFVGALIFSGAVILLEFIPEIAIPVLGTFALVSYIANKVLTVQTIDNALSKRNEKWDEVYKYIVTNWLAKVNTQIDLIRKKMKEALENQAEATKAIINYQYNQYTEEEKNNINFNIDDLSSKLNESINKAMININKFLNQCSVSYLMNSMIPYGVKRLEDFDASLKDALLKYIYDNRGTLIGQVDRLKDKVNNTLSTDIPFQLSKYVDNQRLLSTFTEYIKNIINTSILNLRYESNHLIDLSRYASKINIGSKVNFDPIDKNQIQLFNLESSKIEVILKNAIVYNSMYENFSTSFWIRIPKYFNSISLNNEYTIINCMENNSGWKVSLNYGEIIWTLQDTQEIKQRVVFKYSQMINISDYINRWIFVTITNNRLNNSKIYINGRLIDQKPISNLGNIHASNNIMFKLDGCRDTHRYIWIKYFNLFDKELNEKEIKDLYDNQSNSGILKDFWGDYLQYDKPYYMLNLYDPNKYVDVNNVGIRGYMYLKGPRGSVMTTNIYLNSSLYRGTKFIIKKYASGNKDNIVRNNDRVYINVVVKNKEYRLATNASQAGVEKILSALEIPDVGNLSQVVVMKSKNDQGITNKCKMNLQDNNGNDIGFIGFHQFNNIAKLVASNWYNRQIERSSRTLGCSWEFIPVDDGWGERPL

Compound | neurotoxin-neutralizing activity (neuromuscular contractility, FIG. 2)
kaempferol-3-O-glc-(6-1)-rha-(3-1)-glc [third component] | high toxin-neutralizing activities
C[C@@H]1O[C@@H](OC[C@H]2O[C@@H](Oc3c(-c4ccc(O)c(O)c4)oc4cc(O)cc(O)c4c3=O)[C@H](O)[C@@H](O)[C@@H]2O)[C@H](O)[C@H](O)[C@H]1O [first component, rutin] | high toxin-neutralizing activities
C[C@@H]1O[C@@H](OC[C@H]2O[C@@H](Oc3c(-c4ccc(O)cc4)oc4cc(O)cc(O)c4c3=O)[C@H](O)[C@@H](O)[C@@H]2O)[C@H](O)[C@H](O)[C@H]1O [fourth component, nicotiflorin] | high toxin-neutralizing activities
kaempferol-3-(O-glc-rha)-4′-O-rha [second component] | high toxin-neutralizing activities

Reference: US20040102387A1 (priority 2002, published 2004)
